Laboratory results: publication PMC6197744, “Triazolo[4,5-d]pyrimidines as Validated General Control Nonderepressible 2 (GCN2) Protein Kinase Inhibitors Reduce Growth of Leukemia Cells” (Computational and Structural Biotechnology Journal, 2018)

Tests used:
Experiment in all cases: Broad kinase panel screen (split-luciferase)
Type in all cases: binding
CAMK2D = molecular target: T1, CAMK2D (Homo sapiens, UniProt Q13557)
T1 construct: purchased Luceome Biotechnologies
Procedure: (§1) Compound 2 was screened against a standard panel of 50 protein kinases by Luceome Biotechnologies (Tucson, AZ). In brief, Compound 2 was dissolved and diluted in DMSO to a concentration of 12.5 μM from a 10 mM stock solution. As a control, compound 2 was evaluated for false positive against split-luciferase. For kinase assays, each C-terminal half of firefly luciferase linked kinase (Cfluc-Kinase) was translated along with the coiled coil Fos attached to the N-terminal fragment (Nfluc) (Fos-Nfluc) using rabbit reticulocyte lysate at 30 °C for 90 min. 24 µL aliquot of this lysate containing 1 µL of either DMSO or Compound 2 (at a final concentration 0.5 μM) was incubated for 30 minutes at room temperature followed by 1 hour incubation in the presence of a kinase specific probe. Finally, 80 µL of luciferin assay reagent was added and luminescence was immediately measured on a luminometer. Compound 2 was screened in duplicate against each kinase.
(§2) The % Inhibition and % Activity Remaining was calculated using the following equations: […]

MAP3K10 /MLK2 = molecular target: T2, MAP3K10 /MLK2 (Homo sapiens, UniProt Q02779); conditions: MAP3K10 /MLK2, 0.5 uM
T2 construct: purchased Luceome Biotechnologies
Procedure: as §1, §2

AURKB = molecular target: T3, AURKB (Homo sapiens, UniProt Q96GD4)
T3 construct: purchased Luceome Biotechnologies
Procedure: as §1, §2

MUSK = molecular target: T4, MUSK (Homo sapiens, UniProt O15146)
T4 construct: purchased Luceome Biotechnologies
Procedure: as §1, §2

MAPK14/p38a = molecular target: T5, MAPK14/p38a (Homo sapiens, UniProt Q16539)
T5 construct: purchased Luceome Biotechnologies
Procedure: as §1, §2

PKX/PRKX = molecular target: T6, PKX/PRKX (Homo sapiens, UniProt P51817)
T6 construct: purchased Luceome Biotechnologies
Procedure: as §1, §2

VEGFR2/KDR/FLK1 = molecular target: T7, VEGFR2/KDR/FLK1 (Homo sapiens, UniProt P35968); conditions: VEGFR2/KDR/FLK1, 0.5 uM
T7 construct: purchased Luceome Biotechnologies
Procedure: as §1, §2

PKCe/PRKCE = molecular target: T8, PKCe/PRKCE (Homo sapiens, UniProt Q02156)
T8 construct: purchased Luceome Biotechnologies
Procedure: as §1, §2

SLK = molecular target: T9, SLK (Homo sapiens, UniProt Q9H2G2)
T9 construct: purchased Luceome Biotechnologies
Procedure: as §1, §2

AURKA = molecular target: T10, AURKA (Homo sapiens, UniProt O14965)
T10 construct: purchased Luceome Biotechnologies
Procedure: as §1, §2

MAP3K11/MLK3 = molecular target: T11, MAP3K11/MLK3 (Homo sapiens, UniProt Q16584); conditions: MAP3K11/MLK3, 0.5 uM
T11 construct: purchased Luceome Biotechnologies
Procedure: as §1, §2

MARK1 = molecular target: T12, MARK1 (Homo sapiens, UniProt Q9P0L2); conditions: MARK1, 0.5 uM
T12 construct: purchased Luceome Biotechnologies
Procedure: as §1, §2

ITK = molecular target: T13, ITK (Homo sapiens, UniProt Q08881)
T13 construct: purchased Luceome Biotechnologies
Procedure: as §1, §2

PDK1/PDPK1 = molecular target: T14, PDK1/PDPK1 (Homo sapiens, UniProt O15530); conditions: PDK1/PDPK1, 0.5 uM
T14 construct: purchased Luceome Biotechnologies
Procedure: as §1, §2

MARK2 = molecular target: T15, MARK2 (Homo sapiens, UniProt Q7KZI7); conditions: MARK2, 0.5 uM
T15 construct: purchased Luceome Biotechnologies
Procedure: as §1, §2

PKG1/PRKG1 = molecular target: T16, PKG1/PRKG1 (Homo sapiens, UniProt Q13976); conditions: PKG1/PRKG1, 0.5 uM
T16 construct: purchased Luceome Biotechnologies
Procedure: as §1, §2

SRC = molecular target: T17, SRC (Homo sapiens, UniProt P12931)
T17 construct: purchased Luceome Biotechnologies
Procedure: as §1, §2

CLK2 = molecular target: T18, CLK2 (Homo sapiens, UniProt P49760); conditions: CLK2, 0.5 uM
T18 construct: purchased Luceome Biotechnologies
Procedure: as §1, §2

ABL1 = molecular target: T19, ABL1 (Homo sapiens, UniProt P00519); conditions: ABL1, 0.5 uM
T19 construct: purchased Luceome Biotechnologies
Procedure: as §1, §2

PKA/PRKACA = molecular target: T20, PKA/PRKACA (Homo sapiens, UniProt P17612)
T20 construct: purchased Luceome Biotechnologies
Procedure: as §1, §2

TNK1 = molecular target: T21, TNK1 (Homo sapiens, UniProt Q13470); conditions: TNK1, 0.5 uM
T21 construct: purchased Luceome Biotechnologies
Procedure: as §1, §2

AAK1 = molecular target: T22, AAK1 (Homo sapiens, UniProt Q2M2I8); conditions: AAK1, 0.5 uM
T22 construct: purchased Luceome Biotechnologies
Procedure: as §1, §2

AKT3 = molecular target: T23, AKT3 (Homo sapiens, UniProt Q9Y243); conditions: AKT3, 0.5 uM
T23 construct: purchased Luceome Biotechnologies
Procedure: as §1, §2

SIK2 = molecular target: T24, SIK2 (Homo sapiens, UniProt Q9H0K1); conditions: SIK2, 0.5 uM
T24 construct: purchased Luceome Biotechnologies
Procedure: as §1, §2

CAMK1D = molecular target: T25, CAMK1D (Homo sapiens, UniProt Q8IU85)
T25 construct: purchased Luceome Biotechnologies
Procedure: as §1, §2

YANK2 = molecular target: T26, YANK2 (Homo sapiens, UniProt Q9NY57); conditions: YANK2, 0.5 uM
T26 construct: purchased Luceome Biotechnologies
Procedure: as §1, §2

KIT = molecular target: T27, KIT (Homo sapiens, UniProt P10721)
T27 construct: purchased Luceome Biotechnologies
Procedure: as §1, §2

T17 sequence (P12931 whole entry): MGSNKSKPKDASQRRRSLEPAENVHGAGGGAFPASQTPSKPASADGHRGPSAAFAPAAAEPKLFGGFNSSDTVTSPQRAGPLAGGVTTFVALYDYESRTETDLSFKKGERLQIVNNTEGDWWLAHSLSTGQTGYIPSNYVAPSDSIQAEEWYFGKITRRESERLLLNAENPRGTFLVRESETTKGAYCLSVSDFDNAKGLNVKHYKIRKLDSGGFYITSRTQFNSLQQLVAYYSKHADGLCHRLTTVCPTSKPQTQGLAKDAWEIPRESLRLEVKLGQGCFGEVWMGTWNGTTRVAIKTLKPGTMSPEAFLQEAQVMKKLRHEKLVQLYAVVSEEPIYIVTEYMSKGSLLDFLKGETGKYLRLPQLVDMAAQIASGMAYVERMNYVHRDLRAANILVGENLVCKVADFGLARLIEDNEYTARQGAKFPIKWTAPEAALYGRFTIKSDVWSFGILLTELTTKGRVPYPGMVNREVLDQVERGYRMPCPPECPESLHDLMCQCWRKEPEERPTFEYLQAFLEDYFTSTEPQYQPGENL
T8 sequence (Q02156 whole entry): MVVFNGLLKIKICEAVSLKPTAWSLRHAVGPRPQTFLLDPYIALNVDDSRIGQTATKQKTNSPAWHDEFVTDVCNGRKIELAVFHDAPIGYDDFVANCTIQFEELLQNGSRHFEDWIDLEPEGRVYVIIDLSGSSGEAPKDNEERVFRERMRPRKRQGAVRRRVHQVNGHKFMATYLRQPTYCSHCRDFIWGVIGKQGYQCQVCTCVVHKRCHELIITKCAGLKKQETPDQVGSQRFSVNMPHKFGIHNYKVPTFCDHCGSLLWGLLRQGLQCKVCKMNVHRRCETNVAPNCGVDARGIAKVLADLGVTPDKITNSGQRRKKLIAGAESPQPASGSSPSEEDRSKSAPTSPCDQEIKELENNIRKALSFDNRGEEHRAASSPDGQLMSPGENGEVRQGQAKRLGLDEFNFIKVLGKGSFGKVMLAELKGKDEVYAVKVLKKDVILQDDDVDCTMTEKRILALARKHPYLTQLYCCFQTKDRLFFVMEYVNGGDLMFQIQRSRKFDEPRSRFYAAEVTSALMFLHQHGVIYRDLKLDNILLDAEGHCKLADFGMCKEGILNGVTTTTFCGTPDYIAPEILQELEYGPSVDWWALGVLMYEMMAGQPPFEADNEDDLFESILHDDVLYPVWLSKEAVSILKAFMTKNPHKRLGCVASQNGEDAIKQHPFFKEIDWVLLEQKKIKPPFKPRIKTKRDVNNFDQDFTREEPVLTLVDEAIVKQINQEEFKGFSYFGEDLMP
T22 sequence (Q2M2I8 whole entry): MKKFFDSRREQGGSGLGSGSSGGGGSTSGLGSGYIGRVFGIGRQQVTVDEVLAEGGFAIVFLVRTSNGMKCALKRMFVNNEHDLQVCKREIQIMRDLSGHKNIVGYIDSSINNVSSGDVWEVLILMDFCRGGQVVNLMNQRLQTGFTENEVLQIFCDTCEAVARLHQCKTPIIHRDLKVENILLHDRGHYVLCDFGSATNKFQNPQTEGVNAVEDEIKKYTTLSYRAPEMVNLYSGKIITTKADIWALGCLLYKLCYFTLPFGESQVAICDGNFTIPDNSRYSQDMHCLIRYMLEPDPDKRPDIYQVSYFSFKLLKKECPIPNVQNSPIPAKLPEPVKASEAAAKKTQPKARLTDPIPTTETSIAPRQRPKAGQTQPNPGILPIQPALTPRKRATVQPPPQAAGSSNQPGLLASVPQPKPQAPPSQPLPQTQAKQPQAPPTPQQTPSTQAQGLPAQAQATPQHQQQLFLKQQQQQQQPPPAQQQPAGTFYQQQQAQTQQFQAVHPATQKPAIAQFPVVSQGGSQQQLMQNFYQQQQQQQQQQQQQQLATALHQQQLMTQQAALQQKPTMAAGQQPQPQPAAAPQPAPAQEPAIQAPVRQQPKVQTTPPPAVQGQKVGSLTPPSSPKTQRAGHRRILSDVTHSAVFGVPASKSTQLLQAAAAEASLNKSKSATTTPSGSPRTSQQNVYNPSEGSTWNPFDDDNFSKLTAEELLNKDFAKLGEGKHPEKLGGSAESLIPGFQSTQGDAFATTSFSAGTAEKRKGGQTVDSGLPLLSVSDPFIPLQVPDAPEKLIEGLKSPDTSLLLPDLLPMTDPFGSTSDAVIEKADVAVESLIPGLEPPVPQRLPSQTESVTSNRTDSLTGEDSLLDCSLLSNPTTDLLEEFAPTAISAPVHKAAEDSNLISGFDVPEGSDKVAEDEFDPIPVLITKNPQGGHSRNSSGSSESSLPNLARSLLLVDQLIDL
T3 sequence (Q96GD4 whole entry): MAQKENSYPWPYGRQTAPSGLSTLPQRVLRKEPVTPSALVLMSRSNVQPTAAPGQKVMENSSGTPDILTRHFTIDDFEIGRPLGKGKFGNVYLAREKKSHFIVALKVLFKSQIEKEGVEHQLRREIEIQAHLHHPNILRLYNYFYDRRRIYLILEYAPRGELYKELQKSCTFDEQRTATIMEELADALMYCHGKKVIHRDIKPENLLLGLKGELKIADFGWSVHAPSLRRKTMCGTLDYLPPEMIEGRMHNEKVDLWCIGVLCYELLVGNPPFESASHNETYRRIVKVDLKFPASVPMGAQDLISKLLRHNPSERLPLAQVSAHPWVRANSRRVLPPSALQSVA
T1 sequence (Q13557 whole entry): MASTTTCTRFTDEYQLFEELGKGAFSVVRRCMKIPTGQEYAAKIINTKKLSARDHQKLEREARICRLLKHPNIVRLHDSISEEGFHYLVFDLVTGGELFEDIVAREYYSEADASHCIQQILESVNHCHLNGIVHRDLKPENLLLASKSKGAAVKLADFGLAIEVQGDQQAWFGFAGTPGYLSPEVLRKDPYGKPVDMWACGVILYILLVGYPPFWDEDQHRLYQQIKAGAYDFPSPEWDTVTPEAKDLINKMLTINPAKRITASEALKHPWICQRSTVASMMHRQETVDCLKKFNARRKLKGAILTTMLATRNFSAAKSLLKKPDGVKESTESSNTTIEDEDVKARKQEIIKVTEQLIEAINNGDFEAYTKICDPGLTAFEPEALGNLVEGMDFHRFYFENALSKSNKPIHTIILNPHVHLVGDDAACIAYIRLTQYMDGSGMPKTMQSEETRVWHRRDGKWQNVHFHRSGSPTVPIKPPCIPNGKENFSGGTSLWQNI
T25 sequence (Q8IU85 whole entry): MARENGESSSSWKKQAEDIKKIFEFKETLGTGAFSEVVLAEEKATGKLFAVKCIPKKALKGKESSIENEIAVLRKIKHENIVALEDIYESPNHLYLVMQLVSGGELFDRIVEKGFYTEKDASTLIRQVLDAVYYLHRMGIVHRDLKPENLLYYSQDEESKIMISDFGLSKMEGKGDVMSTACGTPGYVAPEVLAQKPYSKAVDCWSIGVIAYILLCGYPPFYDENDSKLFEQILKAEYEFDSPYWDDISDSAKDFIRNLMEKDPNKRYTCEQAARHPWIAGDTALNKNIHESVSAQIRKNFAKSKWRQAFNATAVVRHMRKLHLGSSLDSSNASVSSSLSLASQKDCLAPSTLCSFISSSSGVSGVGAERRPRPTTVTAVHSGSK
T14 sequence (O15530 whole entry): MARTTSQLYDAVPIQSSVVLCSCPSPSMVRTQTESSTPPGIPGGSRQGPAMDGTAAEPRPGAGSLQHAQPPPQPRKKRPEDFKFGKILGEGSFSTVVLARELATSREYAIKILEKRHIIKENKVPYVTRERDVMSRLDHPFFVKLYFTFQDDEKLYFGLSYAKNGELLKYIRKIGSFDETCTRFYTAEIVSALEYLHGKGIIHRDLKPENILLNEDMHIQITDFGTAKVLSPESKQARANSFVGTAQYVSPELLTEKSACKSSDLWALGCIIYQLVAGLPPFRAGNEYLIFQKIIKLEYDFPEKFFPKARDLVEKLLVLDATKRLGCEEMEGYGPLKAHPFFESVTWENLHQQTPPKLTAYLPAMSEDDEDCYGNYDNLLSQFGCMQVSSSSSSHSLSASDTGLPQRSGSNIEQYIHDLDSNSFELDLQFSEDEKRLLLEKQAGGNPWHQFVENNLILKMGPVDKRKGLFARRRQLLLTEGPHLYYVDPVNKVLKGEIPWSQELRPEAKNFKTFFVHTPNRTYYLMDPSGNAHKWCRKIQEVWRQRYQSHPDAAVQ
T10 sequence (O14965 whole entry): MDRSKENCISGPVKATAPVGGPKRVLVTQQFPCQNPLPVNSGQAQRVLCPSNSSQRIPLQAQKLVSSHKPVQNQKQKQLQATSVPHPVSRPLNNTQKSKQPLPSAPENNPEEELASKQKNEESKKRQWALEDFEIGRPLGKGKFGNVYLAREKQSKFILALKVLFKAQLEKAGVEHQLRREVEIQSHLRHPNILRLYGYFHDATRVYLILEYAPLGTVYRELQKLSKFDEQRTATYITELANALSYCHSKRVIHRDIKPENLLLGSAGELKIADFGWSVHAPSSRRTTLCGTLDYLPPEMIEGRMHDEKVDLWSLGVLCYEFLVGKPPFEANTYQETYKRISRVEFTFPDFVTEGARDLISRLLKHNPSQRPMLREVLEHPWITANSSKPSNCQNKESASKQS
T5 sequence (Q16539 whole entry): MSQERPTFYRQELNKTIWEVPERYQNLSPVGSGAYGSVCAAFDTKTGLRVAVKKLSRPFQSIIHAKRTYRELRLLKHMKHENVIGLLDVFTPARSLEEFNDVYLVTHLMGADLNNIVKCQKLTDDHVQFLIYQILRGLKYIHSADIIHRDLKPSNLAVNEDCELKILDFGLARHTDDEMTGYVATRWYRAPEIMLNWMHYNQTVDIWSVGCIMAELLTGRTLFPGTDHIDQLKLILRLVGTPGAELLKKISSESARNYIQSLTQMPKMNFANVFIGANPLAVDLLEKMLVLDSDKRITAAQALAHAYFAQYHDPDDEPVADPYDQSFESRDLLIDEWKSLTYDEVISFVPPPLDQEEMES

## CCOc1ccc(-n2nnc3cnc(Nc4cnn(CC)c4)nc32)cc1 [Compound 2, 3-(4-Ethoxyphenyl)-N-(1-ethyl-1H-pyrazol-4-yl)-3H-[1,2,3]triazolo[4,5-d]pyrimidin-5-amine]
CAMK2D
  remaining activity at 0.5 µM: 89.9%
MAP3K10 /MLK2
  remaining activity at 0.5 µM: 96.7%
AURKB
  remaining activity at 0.5 µM: 94.7%
MUSK
  remaining activity at 0.5 µM: 100%
MAPK14/p38a
  remaining activity at 0.5 µM: 100%
PKX/PRKX
  remaining activity at 0.5 µM: 97.7%
VEGFR2/KDR/FLK1
  remaining activity at 0.5 µM: 77.1%
PKCe/PRKCE
  remaining activity at 0.5 µM: 100%
SLK
  remaining activity at 0.5 µM: 98.7%
AURKA
  remaining activity at 0.5 µM: 97.1%
MAP3K11/MLK3
  remaining activity at 0.5 µM: 100%
MARK1
  remaining activity at 0.5 µM: 100%
ITK
  remaining activity at 0.5 µM: 89.9%
PDK1/PDPK1
  remaining activity at 0.5 µM: 96.2%
MARK2
  remaining activity at 0.5 µM: 99.3%
PKG1/PRKG1
  remaining activity at 0.5 µM: 96%
SRC
  remaining activity at 0.5 µM: 99.1%
CLK2
  remaining activity at 0.5 µM: 93%
ABL1
  remaining activity at 0.5 µM: 88.9%
PKA/PRKACA
  remaining activity at 0.5 µM: 100%
TNK1
  remaining activity at 0.5 µM: 100%
AAK1
  remaining activity at 0.5 µM: 73.5%
AKT3
  remaining activity at 0.5 µM: 100%
SIK2
  remaining activity at 0.5 µM: 100%
CAMK1D
  remaining activity at 0.5 µM: 92.9%
YANK2
  remaining activity at 0.5 µM: 100%
KIT
  remaining activity at 0.5 µM: 88.8%
